Test results reported in ChEMBL document CHEMBL6120940, “Discovery of N-Aryl-N'-[4-(aryloxy)cyclohexyl]squaramide-Based Inhibitors of LXR/SREBP-1c Signaling Pathway Ameliorating Steatotic Liver Disease: Navigating the Role of SIRT6 Activation” (J Med Chem, 2024).
The source made the active and inactive calls. The rule behind the calls is not given here.

Assays:
Mus musculus [1] = experiment: Anti-lipogenic activity against high fat died induced male C57BL/6J mouse obesity model assessed as effect on body weight at 15 mg/kg, po administered three times per week and measured for 5 weeks; format: functional, organism-based
HepG2 [2] = experiment: Downregulation of ACACA level in human HepG2 cells at 10 uM preincubated for 30 mins followed by OSS128167 addition and measured after 12 hrs; format: functional, cell-based; settings: time 12.5 hrs
Mus musculus [3] = experiment: Anti-lipogenic activity against high fat died induced male C57BL/6J mouse obesity model assessed as reduction in liver weight at 15 mg/kg, po administered three times per week and measured for 5 weeks; format: functional, organism-based
[4] = Terminal half life in 16 hrs fasted ICR mouse at 20 mg/kg, po measured upto 8 hrs by LC-MS/MS analysis; format: ADME, organism-based; settings: in vivo, read-out: beta t1/2 (converted)
[5] = AUC last in 16 hrs fasted ICR mouse at 2 mg/kg, iv measured upto 8 hrs by LC-MS/MS analysis; format: ADME, organism-based; settings: in vivo
Mus musculus [6] = experiment: Anti-lipogenic activity against high fat died induced male C57BL/6J mouse obesity model assessed as reduction hepatic triglyceride level at 15 mg/kg, po administered three times per week and measured for 5 weeks by H and E staining based analysis; format: functional, organism-based
Mus musculus [7] = experiment: Anti-lipogenic activity against high fat died induced male C57BL/6J mouse obesity model assessed as reduction ALT level in serum at 15 mg/kg, po administered three times per week and measured for 5 weeks; format: functional, organism-based
Mus musculus [8] = experiment: Anti-lipogenic activity against high fat died induced male C57BL/6J mouse obesity model assessed as downregulation of F4/80 mRNA level at 15 mg/kg, po administered three times per week and measured after 5 weeks by RT-qPCT analysis; format: functional, organism-based
[9] = Metabolic stability in human liver microsomes at 1 uM measured after 30 mins in presence of NADPH regeneration system by LC-MS/MS analysis; format: ADME, Microsome; settings: read-out: Stability
Mus musculus [10] = experiment: Anti-lipogenic activity against high fat died induced male C57BL/6J mouse obesity model assessed as downregulation of Fasn level at 15 mg/kg, po administered three times per week and measured after 5 weeks by RT-qPCT analysis; format: functional, organism-based
HepG2 [11] = experiment: Activation of AMPK in human HepG2 cells assessed as increase in ratio of ACACA phosphorylation to total ACACA at 5 uM pretreated with compound for 30 mins followed by T0901317 addition and measured after 12 hrs by immunoblot analysis; format: cell-based; settings: filed as activator, time 12.5 hrs
HepG2 [12] = experiment: Effect on SREBP-1a in human HepG2 cells at 10 uM pretreated with compound for 30 mins followed by T0901317 addition and measured after 12 hrs by immunoblot analysis; format: functional, cell-based; settings: time 12.5 hrs
[13] = target: T1, Sterol regulatory element-binding protein 1 (Homo sapiens) (UniProt P36956); experiment: Inhibition of SREBP-1c transcriptional activity in human HepG2 cells expressing LXRalpha/RXRalpha assessed as reduction in SRE-luciferase level pretreated with compound for 30 mins followed by T0901317 addition and measured after 12 hrs by Dual-Glo luciferase assay; format: cell-based; settings: dose 2.5-5 µM, time 12.5 hrs
T1 sequence (whole entry): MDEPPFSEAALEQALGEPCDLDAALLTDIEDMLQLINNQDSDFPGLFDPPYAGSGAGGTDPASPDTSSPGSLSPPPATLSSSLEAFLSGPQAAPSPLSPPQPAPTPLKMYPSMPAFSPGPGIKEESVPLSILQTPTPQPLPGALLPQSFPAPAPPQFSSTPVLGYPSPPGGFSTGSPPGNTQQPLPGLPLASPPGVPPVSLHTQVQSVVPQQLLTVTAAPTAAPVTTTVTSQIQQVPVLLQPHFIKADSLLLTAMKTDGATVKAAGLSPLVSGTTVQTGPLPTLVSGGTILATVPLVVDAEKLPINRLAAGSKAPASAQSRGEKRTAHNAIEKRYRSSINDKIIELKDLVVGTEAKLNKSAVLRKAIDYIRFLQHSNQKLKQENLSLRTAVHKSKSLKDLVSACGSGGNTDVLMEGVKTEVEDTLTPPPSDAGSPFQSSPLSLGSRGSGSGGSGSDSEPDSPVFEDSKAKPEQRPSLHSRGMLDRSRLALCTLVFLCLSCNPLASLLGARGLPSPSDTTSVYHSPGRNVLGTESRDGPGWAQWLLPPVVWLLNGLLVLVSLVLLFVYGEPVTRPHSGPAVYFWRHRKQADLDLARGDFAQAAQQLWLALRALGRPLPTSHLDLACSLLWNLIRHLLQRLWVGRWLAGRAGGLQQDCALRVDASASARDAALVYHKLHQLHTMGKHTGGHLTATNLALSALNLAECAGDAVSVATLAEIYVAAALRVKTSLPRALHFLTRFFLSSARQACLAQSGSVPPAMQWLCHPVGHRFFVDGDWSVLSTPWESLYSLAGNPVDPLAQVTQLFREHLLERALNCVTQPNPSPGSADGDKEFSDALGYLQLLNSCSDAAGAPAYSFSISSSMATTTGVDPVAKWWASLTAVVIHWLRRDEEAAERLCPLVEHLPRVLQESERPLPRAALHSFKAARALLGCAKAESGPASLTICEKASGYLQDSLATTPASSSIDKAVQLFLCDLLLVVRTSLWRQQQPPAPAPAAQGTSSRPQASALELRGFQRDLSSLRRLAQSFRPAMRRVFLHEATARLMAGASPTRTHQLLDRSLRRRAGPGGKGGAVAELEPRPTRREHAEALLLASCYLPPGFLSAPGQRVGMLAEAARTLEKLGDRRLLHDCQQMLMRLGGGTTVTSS

HepG2 [14] = experiment: Downregulation of SREBP-1c expression in human HepG2 cells at 5 uM pretreated with compound for 30 mins followed by T0901317 addition and measured after 12 hrs in presence of compound C by immunoblot analysis; format: functional, cell-based; settings: time 12.5 hrs
HepG2 [15] = experiment: Downregulation of acetylated histone H3K9 level in human HepG2 cells preincubated for 30 mins followed by T0901317 addition and measured after 12 hrs; format: functional, cell-based; settings: dose 5-10 µM, time 12.5 hrs
Mus musculus [16] = experiment: Anti-lipogenic activity against high fat died induced male C57BL/6J mouse obesity model assessed as reduction AST level in serum at 15 mg/kg, po administered three times per week and measured for 5 weeks; format: functional, organism-based
HepG2 [17] = experiment: Downregulation of SCD gene expression in human HepG2 cells in presence of T0901317 by RNA sequencing analysis; format: functional, cell-based
[18] = target: T1, Sterol regulatory element-binding protein 1 (Homo sapiens); experiment: Inhibition of SREBP-1c transcriptional activity in HEK293 cells expressing LXRalpha/RXRalpha assessed as reduction in SRE-luciferase level pretreated with compound for 30 mins followed by T0901317 addition and measured after 12 hrs by Dual-Glo luciferase assay; format: cell-based; settings: dose 2.5-5 µM, time 12.5 hrs
Mus musculus [19] = experiment: Anti-lipogenic activity against high fat died induced male C57BL/6J mouse obesity model assessed as reduction liver tissue size at 15 mg/kg, po administered three times per week and measured for 5 weeks; format: functional, organism-based
[20] = Stability in mouse plasma measured after 120 mins by LC-MS/MS analysis; format: ADME, cell-free; settings: read-out: Stability
HepG2 [21] = experiment: Cytotoxicity against human HepG2 cells at >30 uM measured after 24 hrs by CCK-8 method; format: functional, cell-based
CYP2C9 = CYP2C9 (Homo sapiens, UniProt P11712); experiment: Inhibition of CYP2C9 in human liver microsomes at 10 uM using diclofenac as substrate preincubated for 5 mins followed by NADPH generating system addition and measured after 15 mins relative to control; format: ADME, Microsome; settings: probe diclofenac, time 20 min
Chain of CYP2C9 (P11712 whole entry): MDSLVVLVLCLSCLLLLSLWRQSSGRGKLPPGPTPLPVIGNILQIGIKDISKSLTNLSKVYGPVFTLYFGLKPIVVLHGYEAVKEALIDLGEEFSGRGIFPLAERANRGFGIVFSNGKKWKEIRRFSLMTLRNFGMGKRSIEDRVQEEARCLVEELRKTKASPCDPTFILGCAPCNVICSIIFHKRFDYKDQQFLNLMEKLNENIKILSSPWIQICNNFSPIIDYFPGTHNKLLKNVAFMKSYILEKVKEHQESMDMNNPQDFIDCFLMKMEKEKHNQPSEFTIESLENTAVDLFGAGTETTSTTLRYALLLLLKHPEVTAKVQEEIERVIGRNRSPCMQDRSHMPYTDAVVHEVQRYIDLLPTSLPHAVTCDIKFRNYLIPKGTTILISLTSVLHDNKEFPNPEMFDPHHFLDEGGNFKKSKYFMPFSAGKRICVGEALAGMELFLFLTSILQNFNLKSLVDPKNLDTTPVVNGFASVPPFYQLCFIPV

half-life [4]: 1.4 h
AUC(0-t) at 8 h [5]: 2370 ng·h/mL
remaining at 0.5 h, 1 µM [9]: 34.2%
inhibition [13]: Dose-dependent-effect
inhibition [18]: Dose-dependent-effect
remaining at 2 h [20]: > 100%
inhibition at 0.25 h, 10 µM (CYP2C9): 60.5%
SMILES: COc1ccccc1Nc1c(N[C@H]2CC[C@H](Oc3ccc([N+](=O)[O-])cc3)CC2)c(=O)c1=O
Activity (Mus musculus [1]): inactive
Activity (HepG2 [2]): inactive
Activity (Mus musculus [3]): Active
Activity (Mus musculus [6]): Active
Activity (Mus musculus [7]): Active
Activity (Mus musculus [8]): Active
Activity (Mus musculus [10]): Active
Activity (HepG2 [11]): Active
Activity (HepG2 [12]): inactive
Activity (HepG2 [14]): inactive
Activity (HepG2 [15]): Dose-dependent-effect
Activity (Mus musculus [16]): Active
Activity (HepG2 [17]): Active
Activity (Mus musculus [19]): Active
Activity (HepG2 [21]): Active
